From patent US11834717B2, “Biomarkers for cancer diagnosis, prediction or staging” (Universite du Luxembourg, priority 2017, dated 2023)

Tested on: MYO5B expression in CRC cell lines
Assay: MYO5B expression in CRC cell lines after 5-aza-dC (DAC) treatment, RT-qPCR
Type: cell-based
Conditions: colon cancer (CRC) cell lines, 5 μM for four days vs vehicle (DMSO), 2-4 independent experiments, FIG. 3A
Experimental: All CRC cell lines were obtained from the American Type Culture Collection (ATCC, Rockville, USA) and maintained in recommended culture conditions. For methylation analysis, cells were treated with 5 μM 5-Aza-2′-Deoxycytidine (5-aza-dC/DAC, Sigma) or vehicle (DMSO) for four days followed by RNA extraction.
PCR conditions were used as previously described (Letellier et al, 2014) and the expression levels of the gene of interest were normalized against the housekeeping gene HPRT (Erickson et al, 2009). For bulk tissue and CRC cell lines, the RNA was extracted with the Mirneasy kit from Qiagen and the cDNA was obtained with the mirscript II (Qiagen). PCR cycling conditions as well as quality control and normalization steps were done in qBase+ (Biogazelle), using 2 reference genes as previously described (Qureshi-Baig et al, 2016; Ullmann et a, 2016).
Over the last years, hypermethylation of tumor suppressor genes has been reported in different cancer types (Biswas & Rao, 2017). In a similar manner, MYO5B is methylated in both gastric tumors (Dong et al, 2013) and leukemias (Kuang et al, 2008). Thus, it was analyzed whether promoter methylation could explain the observed down-regulation of MYO5B in CRC. To this end, the expression of MYO5B in CRC cell lines was investigated first after treatment with 5-Aza-2′-Deoxycytidine (5-aza-dC/DAC), a known demethylating agent.

## Nc1ncn([C@H]2C[C@H](O)[C@@H](CO)O2)c(=O)n1 [DAC, 5-Aza-2′-Deoxycytidine]
  change of MYO5B basal expression levels after DAC treatment: minor changes
Listed as 5-aza-dC
  change of MYO5B basal expression levels after DAC treatment: does not increase
